“And” between values parts separate entries of the source, which are not always exact repeats. Equal values may be shown once.
molecular target: T1, myeloperoxidase (MPO) (Homo sapiens, UniProt P05164); test: MPO peroxidation assay (Amplex Red assay); type: biochemical; conditions: MPO peroxidation (Amplex Red), ranges given; read-out: MPO peroxidation assay IC50 values (binned)
T1 sequence (P05164 49-745): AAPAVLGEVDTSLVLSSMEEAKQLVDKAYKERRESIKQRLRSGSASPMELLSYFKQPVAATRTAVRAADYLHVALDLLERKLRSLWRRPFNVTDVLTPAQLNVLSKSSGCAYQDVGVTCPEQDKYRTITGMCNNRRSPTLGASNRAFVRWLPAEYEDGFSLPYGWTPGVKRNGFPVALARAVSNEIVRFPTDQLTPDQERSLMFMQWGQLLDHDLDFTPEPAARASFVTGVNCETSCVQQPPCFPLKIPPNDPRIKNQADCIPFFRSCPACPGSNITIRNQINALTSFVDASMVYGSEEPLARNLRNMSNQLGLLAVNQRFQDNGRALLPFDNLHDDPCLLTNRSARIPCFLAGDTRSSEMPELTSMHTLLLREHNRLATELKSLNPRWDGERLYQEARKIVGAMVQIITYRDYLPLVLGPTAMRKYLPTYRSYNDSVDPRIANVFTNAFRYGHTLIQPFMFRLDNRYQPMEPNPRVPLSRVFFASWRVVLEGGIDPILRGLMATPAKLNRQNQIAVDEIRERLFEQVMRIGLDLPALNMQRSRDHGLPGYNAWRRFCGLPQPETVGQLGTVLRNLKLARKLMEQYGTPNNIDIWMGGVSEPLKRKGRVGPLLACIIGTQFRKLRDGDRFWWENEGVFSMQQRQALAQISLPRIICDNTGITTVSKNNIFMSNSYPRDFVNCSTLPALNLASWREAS
Procedure: MPO Peroxidation Assay (Amplex Red Assay)
MPO peroxidation activity was measured in 100 mM KPi (pH 7.4) by utilizing the non-fluorescent reagent Amplex Red (Invitrogen Cat. #A12222) which can be oxidized to the highly fluorescent resorufin. Amplex Red is oxidized by the peroxidase action of MPO to resorufin. […] Enzyme and compound were preincubated for ten minutes at room temperature.
After the ten minute preincubation, 25 μL of an Amplex Red mixture containing 200 μM Amplex Red and 10 mM H2O2 was added to the plate.
IC50 values were calculated by determining the slope of the linear portion of the kinetic trace (180-540 secs), and using that calculated slope to determine % inhibition occurring at each concentration of inhibitor using the following equation:
[formula] where A=minimal Y value (activity level of inhibited sample), B=maximal Y value (activity level of uninhibited sample), C=Log IC50, D=Hill Slope, x=concentration of inhibitor. MPO Chlorination Assay (APF Assay)

Compound | IC50
Nc1cc(OCc2cn3nc(Cl)ccc3n2)c2nn[nH]c2n1 [Example 40, 7-((6-Chloroimidazo[1,2-b]pyridazin-2-yl)methoxy)-3H-[1,2,3]triazolo[4,5-b]pyridin-5-amine] | 150 to 1000 nM
N#Cc1ccccc1-c1cc(COc2cc(N)nc3[nH]nnc23)on1 [Example 45, 2-(5-((5-Amino-3H-[1,2,3]triazolo[4,5-b]pyridin-7-yloxy)methyl)isoxazol-3-yl)benzonitrile] | ≤ 60 nM
Nc1cc(OCc2ncccc2F)c2nn[nH]c2n1 [Example 89, 7-((3-Fluoropyridin-2-yl)methoxy)-3H-[1,2,3]triazolo[4,5-b]pyridin-5-amine] | ≤ 60 nM
CN1CCN(c2ccc(-c3cnc(COc4cc(N)nc5[nH]nnc45)c(F)c3)cn2)CC1 [Example 107, 7-((5-fluoro-6′-(4-methylpiperazin-1-yl)-[3,3′-bipyridin]-6-yl)methoxy)-3H-[1,2,3] triazolo[4,5-b]pyridin-5-amine] | ≤ 60 nM
Cc1nc(-c2ccccc2)oc1COc1cc(N)nc2[nH]nnc12 [Example 54, 7-((4-Methyl-2-phenyloxazol-5-yl)methoxy)-3H-[1,2,3]triazolo[4,5-b]pyridin-5-amine] | 60 to 150 nM
Cn1nc(C2CC2)cc1COc1cc(N)nc2[nH]nnc12 [Example 20, 7-((3-Cyclopropyl-1-methyl-1H-pyrazol-5-yl)methoxy)-3H-[1,2,3]triazolo [4,5-b]pyridin-5-amine] | ≤ 60 nM
Nc1cc(OCc2cccc3c2OCCO3)c2nn[nH]c2n1 [Example 2, 7-((2,3-Dihydrobenzo[b][1,4]dioxin-5-yl)methoxy)-3H-[1,2,3]triazolo[4,5-b]pyridin-5-amine] | ≤ 60 nM
Nc1nc(OCc2cc(Cl)nc(Cl)c2)c2nn[nH]c2n1 [Example 119, 7-((2,6-dichloropyridin-4-yl)methoxy)-3H-[1,2,3]triazolo[4,5-d]pyrimidin-5-amine] | 60 to 150 nM
Cn1nc(COc2cc(N)nc3[nH]nnc23)cc1-c1ccccc1 [Example 17, 7-((1-Methyl-5-phenyl-1H-pyrazol-3-yl)methoxy)-3H-[1,2,3]triazolo[4,5-b]pyridin-5-amine] | ≤ 60 nM
Nc1cc(OCc2cccc3cccnc23)c2nn[nH]c2n1 [Example 7, 7-(Quinolin-8-ylmethoxy)-3H-[1,2,3]triazolo[4,5-b]pyridin-5-amine] | ≤ 60 nM
Cn1ncc2cccc(COc3cc(N)nc4[nH]nnc34)c21 [Example 8, 7-((1-Methyl-1H-indazol-7-yl)methoxy)-3H-[1,2,3]triazolo[4,5-b]pyridin-5-amine] | ≤ 60 nM
Cc1nn(C2CCC(C)C2)nc1COc1cc(N)nc2[nH]nnc12 (mixture of isomers) [Example 72, 7-((5-Methyl-2-(3-methylcyclopentyl)-2H-1,2,3-triazol-4-yl)methoxy)-3H-[1,2,3]triazolo[4,5-b]pyridin-5-amine] | ≤ 60 nM
Cn1nc(COc2cc(N)nc3[nH]nnc23)cc1Br [Example 93, 7-((5-Bromo-1-methyl-1H-pyrazol-3-yl)methoxy)-3H-[1,2,3]triazolo[4,5-b]pyridin-5-amine] | ≤ 60 nM
Nc1cc(OCc2cccc3c2OC(F)(F)O3)c2nn[nH]c2n1 [Example 3, 7-((2,2-Difluorobenzo[d][1,3]dioxol-4-yl)methoxy)-3H-[1,2,3]triazolo[4,5-b]pyridin-5-amine] | ≤ 60 nM
Cc1nc(-c2ccc(Cl)cc2)sc1COc1cc(N)nc2[nH]nnc12 [Example 49, 7-((2-(4-Chlorophenyl)-4-methylthiazol-5-yl)methoxy)-3H-[1,2,3]triazolo [4,5-b]pyridin-5-amine] | ≤ 60 nM
Nc1cc(OCc2cccc(-c3cccc(F)c3)n2)c2nn[nH]c2n1 [Example 5, 7-((6-(3-Fluorophenyl)pyridin-2-yl)methoxy)-3H-[1,2,3]triazolo[4,5-b]pyridin-5-amine] | 60 to 150 nM

Compound | IC50
Nc1cc(OCc2nc(Br)ccc2F)c2nn[nH]c2n1 [Example 95, 7-((6-Bromo-3-fluoropyridin-2-yl)methoxy)-3H-[1,2,3]triazolo[4,5-b]pyridin-5-amine] | ≤ 60 nM
Cc1oc(-c2cc(F)cc(F)c2)nc1COc1cc(N)nc2[nH]nnc12 [Example 27, 7-((2-(3,5-Difluorophenyl)-5-methyloxazol-4-yl)methoxy)-3H-[1,2,3]triazolo[4,5-b]pyridin-5-amine] | 150 to 1000 nM
Nc1cc(OCc2ccc(C(F)(F)F)o2)c2nn[nH]c2n1 [Example 82, 7-((5-(Trifluoromethyl)furan-2-yl)methoxy)-3H-[1,2,3]triazolo[4,5-b]pyridin-5-amine] | ≤ 60 nM
Nc1cc(OCc2nc(-c3ccccc3)no2)c2nn[nH]c2n1 [Example 24, 7-((3-Phenyl-1,2,4-oxadiazol-5-yl)methoxy)-3H-[1,2,3]triazolo[4,5-b]pyridin-5-amine] | 60 to 150 nM
Cn1nc(COc2cc(N)nc3[nH]nnc23)cc1-c1ccc(N2CCNCC2)nc1 [Example 104, 7-((1-methyl-5-(6-(piperazin-1-yl)pyridin-3-yl)-1H-pyrazol-3-yl)methoxy)-3H-[1,2,3]triazolo[4,5-b]pyridin-5-amine] | ≤ 60 nM
Nc1cc(OCc2ccc3c(c2)OCO3)c2nn[nH]c2n1 [Example 1, 7-(Benzo[d][1,3]dioxol-5-ylmethoxy)-3H-[1,2,3]triazolo[4,5-b]pyridin-5-amine] | ≤ 60 nM
Cc1nn(Cc2c[nH]cn2)nc1COc1cc(N)nc2[nH]nnc12 [Example 71, 7-((2-((1H-Imidazol-4-yl)methyl)-5-methyl-2H-1,2,3-triazol-4-yl)methoxy)-3H-[1,2,3]triazolo[4,5-b]pyridin-5-amine] | 60 to 150 nM and 150 to 1000 nM
Cc1nn(Cc2cccc(C3CCNCC3)c2)nc1COc1cc(N)nc2[nH]nnc12 [Example 78, 7-((5-Methyl-2-(3-(piperidin-4-yl)benzyl)-2H-1,2,3-triazol-4-yl)methoxy)-3H-[1,2,3]triazolo[4,5-b]pyridin-5-amine] | ≤ 60 nM
Cc1nn(C[C@@H]2C[C@H](Oc3ccccc3)CN2)nc1COc1cc(N)nc2[nH]nnc12 [Example 73, 7-((5-Methyl-2-(((2S,4S)-4-phenoxypyrrolidin-2-yl)methyl)-2H-1,2,3-triazol-4-yl)methoxy)-3H-[1,2,3]triazolo[4,5-b]pyridin-5-amine] | ≤ 60 nM
Nc1cc(OCc2cccc3c2ncn3Cc2ccccc2)c2nn[nH]c2n1 [Example 37, 7-((1-Benzyl-1H-benzo[d]imidazol-4-yl)methoxy)-3H-[1,2,3]triazolo[4,5-b]pyridin-5-amine] | 150 to 1000 nM
Nc1cc(OCc2nn(-c3cccc(Cl)c3)c3c2CCNC3=O)c2nn[nH]c2n1 [Example 51, 3-(((5-Amino-3H-[1,2,3]triazolo[4,5-b]pyridin-7-yl)oxy)methyl)-1-(3-chlorophenyl)-5,6-dihydro-1H-pyrazolo[3,4-c]pyridin-7(4H)-one] | 60 to 150 nM
COc1ccc(-c2cncc(COc3nc(N)nc4[nH]nnc34)c2)cc1 [Example 118, 7-((5-(4-methoxyphenyl)pyridin-3-yl)methoxy)-3H-[1,2,3]triazolo[4,5-d] pyrimidin-5-amine] | 60 to 150 nM
Nc1cc(OCc2ncc(Br)cc2F)c2nn[nH]c2n1 [Example 87, 7-((5-Bromo-3-fluoropyridin-2-yl)methoxy)-3H-[1,2,3]triazolo[4,5-b]pyridin-5-amine] | ≤ 60 nM
Nc1cc(OCc2nc(-c3ccc(C4CC4)nc3)ccc2F)c2nn[nH]c2n1 [Example 98, 7-((6′-cyclopropyl-S-fluoro-[2,3′-bipyridin]-6-yl)methoxy)-3H-[1,2,3]triazolo[4,5-b] pyridin-5-amine] | ≤ 60 nM
Cc1nc(-c2ccc(Cl)cc2)ncc1COc1cc(N)nc2[nH]nnc12 [Example 31, 7-((2-(4-Chlorophenyl)-4-methylpyrimidin-5-yl)methoxy)-3H-[1,2,3]triazolo[4,5-b]pyridin-5-amine] | 150 to 1000 nM

same assay, conditions: MPO peroxidation assay IC50 values (binned), MPO peroxidation (Amplex Red), ranges given

Compound | IC50 [nM]
Cc1nn(-c2ccccc2)nc1COc1cc(N)nc2[nH]nnc12 [Example 21, 7-((5-Methyl-2-phenyl-2H-1,2,3-triazol-4-yl)methoxy)-3H-[1,2,3]triazolo [4,5-b]pyridin-5-amine] | ≤ 60
Nc1cc(OCc2nn(-c3ccccc3)nc2CO)c2nn[nH]c2n1 [Example 64, (5-(((5-Amino-3H-[1,2,3]triazolo[4,5-b]pyridin-7-yl)oxy)methyl)-2-phenyl-2H-1,2,3-triazol-4-yl)methanol] | 60 to 150
Nc1cc(OCc2ncc(-c3ccccc3)o2)c2nn[nH]c2n1 [Example 25, 7-((5-Phenyloxazol-2-yl)methoxy)-3H-[1,2,3]triazolo[4,5-b]pyridin-5-amine] | 60 to 150
